How the values were obtained:
[1] = tested on: PC-3 (androgen receptor independent); assay: SRB assay, growth of PC-3 cells; type: cell-based, human; conditions: for IC50: SRB, 3 days
Method: (§1) In order to examine the inhibitory effects on the growth of the human prostate cancer cells LNCaP (androgen receptor dependent) and PC-3 (androgen receptor independent), a sulforhodamine B (SRB) assay was performed.
(§2) 10 μL of a solution of thio-Cl-IB-MECA in 10% dimethylsulfoxide (DMSO) was loaded in each well of a 96-well plate in triplicate at concentrations of 50, 25, 12.5 and 6.25 μM, thus making a test plate. Cells were diluted to a density of 6×10^4 cells/ml with 10% FBS-containing RPMI 1640 medium supplemented with antibiotics-antimycotics, and 190 μL of the cell suspension was added to each well so as to reach a total volume of 200 μL and was cultured in a 5% CO2 incubator at 37° C. for 3 days. At the same time, 190 μL of the same cell suspension was loaded into each of 16 wells or more of a fresh 96-well plate containing no sample (thio-Cl-IB-MECA) and was cultured in a 5% CO2 incubator at 37° C. for 30 minutes, thereby determining reference date. After the culture, 50 μL of 50% trichloroacetic acid (TCA) was added to each well, and the cells were fixed by culture at 4° C. for 1 hour. Then, the well plate was washed five times with tap water and dried. 100 μL of 1% acetic acid solution containing […] sulforhodamine B (SRB) was added to each well to stain the cells, and the well plate was allowed to stand at room temperature for 1 hour. After the well plate has been washed five times with 1% acetic acid and sufficiently dried, 200 μL of 100 mM Tris-base was added to each well, and the bound staining liquid was dissolved and sufficiently shaken in a shaker. Then, the absorbance at 515 nm was measured using an ELISA microplate reader. Based on the measured absorbance, the cell viability of the test group relative to the control group was calculated using the following equation 2, and based on the viability at each concentration, the IC50 value of the sample was calculated using TableCurve program: […]

[2] = tested on: LNCaP (androgen receptor dependent); assay: SRB assay, growth of LNCaP cells; type: cell-based, human; conditions: for IC50: SRB, 3 days
Method: as §1, §2

[3] = tested on: LPS-induced sepsis; assay: Animal model with LPS-induced sepsis; type: in vivo, ICR mice; conditions: LPS (S. marcenes) 2 mg/kg then 10 mg/kg
Method: The effect of the inventive composition (thio-Cl-IB-MECA) in an animal model with LPS-induced sepsis was tested. S. marcenes-derived LPS used in the test is known to be strongly pathogenic compared to E. coli-derived LPS. First, LPS was administered at low dose to attenuate an immune response in animals, and after a given time, it was administered at high dose to rapidly induce sepsis and septic shock. Specifically, ICR mice (20-25 g, male) were divided into the following 5 groups, each consisting of 6 mice: a normal group not treated with any substance; a control group administered with only saline; groups administered with the inventive composition (200 and 500 μg/kg of thio-Cl-IB-MECA); and a group administered with the conventional A3 adenosine receptor agonist (500 μg/kg IB-MECA). 30 minutes administration of these drugs, a solution of 2 mg/kg LPS (S. marcenes) in saline was administered intraabdominally. After 20 hours, the drug was administered again, and 30 minutes, LPS (S. marcenes) was administered again at a dose of 10 mg/kg. The mice were observed hourly up to 6 hours after the second stimulation, and the survival rate was observed up to 7 days after the second stimulation. The effect of the inventive composition (thio-Cl-IB-MECA) was compared with the effect of the prior A3 adenosine receptor agonist (IB-MECA), and the effects of the inventive composition (thio-Cl-IB-MECA) at different doses (200 and 500 μg/kg) were compared with each other.
The change in bodyweight was measured before the start of the test, before the second administration of the drug, and 7 days after the second administration.

[4] = tested on: prostate cancer cell line PC-3; assay: Anticancer activity in PC-3 tumor-transplanted nude mice; type: in vivo; conditions: for tumor production inhibitory activity relative to the control group: 2 mg/kg orally every day for 35 days
Method: Based on the anticancer activity of thio-Cl-IB-MECA against prostate cancer cells, proven by the in vitro test, the anticancer activity of thio-Cl-IB-MECA was measured by an animal test. The prostate cancer cell line PC-3 was transplanted subcutaneously into nude mice, and when the tumor size reached 150-200 mm^3 after 8 days, the drug thio-Cl-IB-MECA (0.02, 0.2 and 2 mg/kg), thio-IB-MECA (2 mg/kg) or IB-MECA (2 mg/kg) was administered orally every day for 35 days. The tumor size was measured at intervals of 3-5 days. The tumor volume was measured using the following equation 3.
Tumor volume=abc×π/6 [Equation 3]
wherein a represents the longer diameter of the tumor, b represents the shorter diameter of the tumor, and c represents the height of the tumor.

[5] = tested on: human colorectal cancer HCT 116 cells; assay: Anticancer activity in nude mice transplanted with HCT 116 cells; type: in vivo, nude mice (Balb/c-nu/nu mice); conditions: for side effects (such as a change in bodyweight) during the test period: 0.02, 0.2 and 2 mg/kg orally for 21 days
Method: HCT 116 cells were prepared at a concentration of 2×10^6 cells/200 μl (RPMI) and administered subcutaneously into the right frank of 6-week-old female nude mice (Balb/c-nu/nu mice). The tumor size was measured with calipers, and the tumor size reached about 100 mm^3, 20 mice having substantially the same tumor size were divided into a control group and three sample-treated groups. The three sample-treated group were administered orally with IB-MECA at doses of 0.02, 0.2 and 2 mg/kg, respectively, for 21 days. In the control group and the sample-treated groups, the bodyweight was measured once every week, and the tumor size was measured at intervals of 3-4 days. The tumor volume was measured using equation 3 above. In the equation, a represents the longer diameter of the tumor, b represents the shorter diameter of the tumor, and c represents the height of the tumor.
Anticancer activity was measured by an animal test in the same manner as Example 20, except that 6-week-old female nude mice were administered with Cl-IB-MECA in place of IB-MECA as a sample.
Anticancer activity was measured by an animal test in the same manner as Example 20, except that 6-week-old female nude mice were administered with thio-Cl-IB-MECA in place of IB-MECA as a sample.

| Structure (SMILES) | cell viability in PC-3 ([1]; 50 μM (highest concentration)) | IC50 [1] | cell viability in LNCaP ([2]; 50 μM (highest concentration)) | IC50 [2] | survival rate after 1 day ([3]; 500 μg/kg) | tumor production inhibitory activity relative to the control group [4] | inhibition rate of tumor growth ([5]; 0.02 mg/kg orally for 21 days) | inhibition rate of tumor growth ([5]; 0.2 mg/kg orally for 21 days) | inhibition rate of tumor growth ([5]; 2 mg/kg orally for 21 days) | side effects (such as a change in bodyweight) during the test period [5] | survival rate after 1 day ([3]; 200 μg/kg) | tumor production as a function of dose ([4]; 0.02, 0.2 and 2 mg/kg orally every day for 35 days) |
| --- | --- | --- | --- | --- | --- | --- | --- | --- | --- | --- | --- | --- |
| CNC(=O)[C@H]1O[C@@H](n2cnc3c(NCc4cccc(I)c4)ncnc32)[C@H](O)[C@@H]1O [IB-MECA] | 63% | 97.1 µM | 54% | 54.2 µM | 66.7% | about 45.9% | 20.7% | 48.7% | 58.6% | survived healthfully without particular side effects | – | – |
| CNC(=O)[C@H]1S[C@@H](n2cnc3c(NCc4cccc(I)c4)nc(Cl)nc32)[C@H](O)[C@@H]1O [thio-Cl-IB-MECA, 2-chloro-N^6-(3-iodobenzyl)-4′-thioadenosine-5′-N-methyluronamide] | – | 20.4 µM | – | 18.6 µM | 66.7% | 82.6% | 16.1% | 54.4% | 62.1% | survived healthfully without particular side effects | 71.4% | inhibited tumor production in a concentration-dependent manner |

— US20140371244A1, “METHOD FOR TREATING PROSTATE CANCER BY USE OF PHARMACEUTICAL COMPOSITION CONTAINING A3 ADENOSINE RECEPTOR AGONIST” (priority 2009, published 2014)
